From patent publication US9006257B2, “Bicyclic compounds as mPGES-1 inhibitors” (Glenmark Pharmaceuticals S.A., priority 2012, dated 2015) come the findings set out here.

Bounds are passed on as bounds.

This assay has as its target T1, Recombinant human mPGES-1 (Homo sapiens, UniProt O14684).
T1 construct: made in house; host or cells: CHO cells
T1 sequence (O14684 1-152): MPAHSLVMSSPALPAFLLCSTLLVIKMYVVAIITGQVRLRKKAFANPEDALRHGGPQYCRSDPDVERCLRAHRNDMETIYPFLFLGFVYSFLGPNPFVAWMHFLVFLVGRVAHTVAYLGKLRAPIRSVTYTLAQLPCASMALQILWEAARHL
The assay can be described thus: In-vitro mPGES-1 inhibitor screening (inhibition of PGE2 formation from PGH2, HTRF detection). Format: biochemical. The settings on record: for inhibition at 1 µM: 1 μM test compound, read-out: Percentage inhibition at 1 μM; for inhibition at 1 µM / inhibition at 10 µM: crude microsomal fraction, 15 μM PGH2; for inhibition at 10 µM: 10 μM test compound, read-out: Percentage inhibition at 10 μM; for IC50: class symbol, concentration response curve. In short, it runs like this:
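Recombinant human mPGES-1 from CHO microsomes (40-60 μg/mL protein) preincubated 10 min with compound in 0.1 M potassium phosphate, 2 mM EDTA, 2.5 mM GSH, 0.5% DMSO; 15 μM PGH2 reacted 1 min, stopped with stannous chloride. PGE2 by HTRF; IC50 by nonlinear regression of % inhibition.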
For orientation: In TR-FRET formats the signal depends on donor and acceptor labels being close together.

A word on the inhibition: it is how much of the control response was suppressed. In general, IC50 refers to the concentration needed to halve the response being measured. With `CC(C)Nc1ncnc2c(NC(=O)c3c(Cl)ccc(CNC(=O)C(C)(C)C)c3F)cccc12` [Example-64, 6-Chloro-2-fluoro-N-(4-(isopropylamino)quinazolin-8-yl)-3-(pivalamidomethyl)benzamide], the inhibition at 1 µM was 90.6%, the inhibition at 10 µM is 94.5% and the IC50 was less than 50 nM.
On the same counts, the results for `Cc1nc(NC(C)(C)C)c2cccc(NC(=O)c3c(Cl)ccc(CNC(=O)C(C)(C)C)c3F)c2n1` [Example-65, N-(4-(tert-Butylamino)-2-methylquinazolin-8-yl)-6-chloro-2-fluoro-3-(pivalamidomethyl)benzamide] are 94%, 93% and less than 50 nM.
Consider `CC(C)(CO)C(=O)NCc1ccc(Cl)c(C(=O)Nc2cccc3c(Oc4cccc(C(F)(F)F)c4)ncnc23)c1F` [Example-66, 6-Chloro-2-fluoro-3-((3-hydroxy-2,2-dimethylpropanamido)methyl)-N-(4-(3-(trifluoromethyl)phenoxy)quinazolin-8-yl)benzamide], for which the inhibition at 1 µM was 96.7%, the inhibition at 10 µM came to 96.8% and the half-maximal inhibitory concentration (IC50) was less than 50 nM.
For the compound `CC(C)(C)Nc1ncnc2c(NC(=O)c3cc(CNC(=O)C(C)(C)C)ccc3Cl)cccc12` [Example-67, N-(4-(tert-Butylamino)quinazolin-8-yl)-2-chloro-5-(pivalamidomethyl)benzamide], the inhibition at 1 µM came out at 96.5%, the inhibition at 10 µM came out at 100% and the IC50 was less than 50 nM.
The like results for `Cc1ccc(CNC(=O)C(C)(C)C)c(C)c1C(=O)Nc1cccc2c(NC(C)(C)C)ncnc12` [Example-68, N-(4-(tert-Butylamino)quinazolin-8-yl)-2,6-dimethyl-3-(pivalamidomethyl)benzamide] were, in that order, 99.8%, 100% and less than 50 nM.
On the same counts, the results for `CC(C)(C)Nc1ncnc2c(NC(=O)c3c(Cl)ccc(CNC(=O)C(C)(C)CO)c3F)cccc12` [Example-69, N-(4-(tert-Butylamino)quinazolin-8-yl)-6-chloro-2-fluoro-3-((3-hydroxy-2,2-dimethylpropanamido)methyl)benzamide] are 84.9%, 98.2% and less than 50 nM.
The like results for `CC(C)C(=O)NCc1ccc(Cl)c(C(=O)Nc2cccc3c(NC(C)(C)C)ncnc23)c1F` [Example-70, N-(4-(tert-Butylamino)quinazolin-8-yl)-6-chloro-2-fluoro-3-(isobutyramidomethyl)benzamide] were, in that order, 100%, 98.8% and less than 50 nM.
Take `CC(C)(C)Nc1ncnc2c(NC(=O)c3cc(CNC(=O)C(C)(C)C)c(F)cc3Cl)cccc12` [Example-71, N-(4-(tert-Butylamino)quinazolin-8-yl)-2-chloro-4-fluoro-5-(pivalamidomethyl)benzamide]: the inhibition at 1 µM was determined as 100%, the inhibition at 10 µM was determined as 97.3% and the IC50 was less than 50 nM.
The like results for `CC(C)(C)Nc1ncnc2c(NC(=O)c3ccc(F)c(CNC(=O)C(C)(C)C)c3Cl)cccc12` [Example-72, N-(4-(tert-Butylamino)quinazolin-8-yl)-2-chloro-4-fluoro-3-(pivalamidomethyl)benzamide] were, in that order, 86.8%, 98.7% and 50 to 100 nM.
Regarding `CC(C)C(=O)NCc1ccc(Cl)c(C(=O)Nc2cccc3c(NCC(F)(F)F)ncnc23)c1F` [Example-73, 6-Chloro-2-fluoro-3-(isobutyramidomethyl)-N-(4-((2,2,2-trifluoroethyl)amino)quinazolin-8-yl)benzamide], the inhibition at 1 µM is 88.7%, the inhibition at 10 µM was 93.2% and the half-inhibitory concentration (IC50) is less than 50 nM.
